Experiment [1] deals with peripheral blood mononuclear cells (PBMC) stimulated with allogeneic PBMC or EBV-transformed human B cells (RPMI1788). In words: Mixed lymphocyte reaction (MLR) assay. The settings on record: 50% suppression of the MLR, [3H]-thymidine incorporation, read-out: MLR. The experiment is classed as cell-based. Summed up: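 Responder PBMC co-cultured in triplicate with 30 Gy-irradiated allogeneic PBMC or RPMI1788 B cells plus compound (DMSO stock 10 mM, diluted in medium). After 5 days at 37° C, 1 μCi [3H]-thymidine added for 16 h more; incorporated cpm counted and proliferation inhibition calculated.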
(In general: Dividing cells build labelled thymidine or BrdU into new DNA.)

Experiment [2] concerns phosphodiesterase-4 (PDE-4) extract from U937 cells. The experiment can be described thus: Phosphodiesterase-4 inhibiting activity (isotopic two-step method). The experiment is classed as biochemical.
Experiment [3] deals with production of human TNF-α by PBMC in response to LPS. The experiment can be described thus: TNF-α assay (LPS-stimulated PBMC, sandwich ELISA). It is filed as cell-based. Particulars: LPS 1 μg/ml, 72 hours, read-out: TNF α. Here is the method: Peripheral blood mononuclear cells (herein referred as PBMC), in response to stimulation by lipopolysaccharide (hereinafter LPS), a gram-negative bacterial endotoxin, produce various […], in particular human TNF-α. Inhibition of the activation of PBMC can therefore be measured by the level of suppression of the production of TNF-α by PBMC in response to stimulation by LPS. Inhibition measurement was performed as follows: PBMC were isolated from heparinized peripheral blood by density gradient centrifugation over Lymphoprep (commercially available from Nycomed, Norway). LPS was then added to the PMBC suspension in complete medium (10^6 cells/ml) at a final concentration of 1 μg/ml. The pteridine derivative to be tested was added at different concentrations (0.1 μM, 1 μM and 10 μM) and the cells were incubated at 37° C. for 72 hours in 5% CO2. The supernatants were collected, then TNF-α concentrations were measured with respectively an anti-TNF-α antibody in a sandwich ELISA (Duo Set ELISA human TNFα, commercially available from R&D Systems, United Kingdom). The colorimetric reading of the ELISA was measured by a Multiskan RC plate reader (commercially available from ThermoLabsystems, Finland) at 450 nm (reference wavelength: 690 nm). Data analysis was performed with Ascent software 2.6. (also from ThermoLabsystems, Finland): a standard curve (recombinant human TNFα) was drawn and the amount (pg/ml) of each sample on the standard curve was determined. The % suppression of human TNFα production by the pyrido[3,2-d]pyrimidine derivatives of the invention was calculated using the formula: [formula]

Molecules are shown by their SMILES. Read-outs that look alike come from different tables or passages of the source.

Regarding `CCOc1ccc(-c2ccc3ncnc(N4CCN(C(=O)Nc5cccc(Cl)c5)CC4)c3n2)cc1Cl` [Example 83], the IC50 in experiment [1] turned out to be 0.5 µM. Further, the “PDE-4 (% inhibition)” value in experiment [2] (@ 10 μM) stood at 49% @ 10 μM.

For `COc1ccc(-c2ccc3ncnc(N4CCN(C(=O)Nc5ccc(F)c(Cl)c5)CC4)c3n2)cc1OC` [Example 108, 4-[(N-3-chloro-4-fluorophenylcarbamoyl)-piperazin-1-yl]-6-(3,4-dimethoxy-phenyl)-pyrido[3,2-d]pyrimidine], the values for the IC50 in experiment [1] and in experiment [3] were 0.06 µM and 0.2 µM, respectively. Also, the “PDE-4 (% inhibition)” value in experiment [2] (@ 0.2 μM) worked out at 59% @ 0.2 μM.

`COc1ccc(-c2ccc3nc(N)nc(N4CCN(C(=O)Nc5ccc(F)cc5)CC4)c3n2)cc1OC` [Example 56, 2-amino-4(N-4-fluoro-phenyl-carbamoyl-piperazin-1-yl)-6-(3,4-dimethoxy-phenyl)-pyrido[3,2-d]pyrimidine]: the IC50 turned out to be 0.003 µM in experiment [1] and 0.07 µM in experiment [3]. Further, in experiment [2] (@ 0.1 μM), the “PDE-4 (% inhibition)” value was 74% @ 0.1 μM.

For the compound `COc1ccc(-c2ccc3nc(N)nc(N4CCN(C(=O)COc5ccc(Cl)cc5)CC4)c3n2)cc1OC` [Example 59, 2-amino-4-[(N-4-chloro-phenoxy-acetyl)-piperazin-1-yl]-6-(3,4-dimethoxyphenyl)-pyrido[3,2-d]pyrimidine], the IC50 stood at 0.016 µM in experiment [1] (Homo sapiens, RPMI-1788) and 0.034 µM in experiment [2] (1.01 μM [3H]cAMP+cAMP).

As to `Cc1ccc(-c2ccc3ncnc(N4CCN(C(=O)Nc5cccc(Cl)c5)CC4)c3n2)cc1C` [Example 81], in experiment [1], the IC50 is 0.5 µM. Moreover, the “PDE-4 (% inhibition)” value in experiment [2] (@ 10 μM) is 12% @ 10 μM.

On to `Nc1nc(N2CCN(C(=O)COc3ccc(Cl)cc3)CC2)c2nc(-c3ccc(F)cc3)ccc2n1` [Example 207, 2-amino-4-[(N-4-chloro-phenoxy-acetyl)-piperazin-1-yl]-6-(4-fluorophenyl)-pyrido[3,2-d]pyrimidine], for which, in experiment [1], the IC50 came out at 0.03 µM. Moreover, the “PDE-4 (% inhibition)” value in experiment [2] (@ 10 μM) worked out at 34% @ 10 μM.

Turning to `COc1cc(-c2ccc3ncnc(N4CCN(C(=O)Nc5cccc(Cl)c5)CC4)c3n2)ccc1OCC1CC1` [Example 211, 4-[N-(3-chloro-phenylcarbamoyl)-piperazin-1-yl]-6-(3-methoxy-4-cyclopropylmethoxy-phenyl)-pyrido[3,2-d]pyrimidine], in experiment [1], the IC50 came out at 0.4 µM. Moreover, the “PDE-4 (% inhibition)” value in experiment [2] (@ 10 μM) was 16% @ 10 μM.

As to `COc1ccc(-c2ccc3nc(N)nc(N4CCN(C(=O)c5ccco5)CC4)c3n2)cc1OC` [Example 51, 2-amino-4-[1-(2-furoyl)-piperazin-1-yl]-6-(3,4-dimethoxyphenyl)-pyrido[3,2-d]pyrimidine], in experiment [1], the IC50 came out at 0.03 µM. Also, the “PDE-4 (% inhibition)” value in experiment [2] (@ 0.03 μM) turned out to be 63% @ 0.03 μM.

Consider `COc1cc(-c2ccc3ncnc(N4CCN(C(=O)Nc5cccc(Cl)c5)CC4)c3n2)ccc1OC(C)C` [Example 121], for which the IC50 in experiment [1] was 0.3 µM. Further, in experiment [2] (@ 10 μM), the “PDE-4 (% inhibition)” value came out at 54% 10 μM.

Regarding `COc1ccc(-c2ccc3ncnc(N4CCN(C(=O)Nc5cccc(Cl)c5)CC4)c3n2)cc1Cl` [Example 79, 4-[(N-3-chlorophenylcarbamoyl)-piperazin-1-yl]-6-(3-chloro-4-methoxyphenyl)-pyrido[3,2-d]pyrimidine], the IC50 in experiment [1] was 0.3 µM. In addition, the “PDE-4 (% inhibition)” value in experiment [2] (@ 10 μM) is 67% @ 10 μM.

Turning to `O=C(Nc1cccc(Cl)c1)N1CCN(c2ncnc3ccc(-c4ccc(Cl)c(Cl)c4)nc23)CC1` [Example 84], in experiment [1], the IC50 is 0.7 µM. The “PDE-4 (% inhibition)” value in experiment [2] (@ 10 μM) is given as 22% @ 10 μM.

Regarding `O=C(Nc1cccc(Cl)c1)N1CCN(c2ncnc3ccc(-c4ccc5c(c4)OCCO5)nc23)CC1` [Example 80, 4-[(N-3-chlorophenylcarbamoyl)-piperazin-1-yl]-6-(1,4-benzodioxan-6-yl)-pyrido[3,2-d]pyrimidine], the IC50 in experiment [1] is 0.3 µM. Also, in experiment [2] (@ 10 μM), the “PDE-4 (% inhibition)” value is 17% @ 10 μM.

`Nc1nc(N2CCOCC2)c2nc(-c3cccnc3)ccc2n1` [Example 240, 2-amino-4-morpholino-6-(3-pyridinyl)-pyrido[3,2-d]pyrimidine]: the IC50 was 1.3 µM in experiment [1] (Homo sapiens, RPMI-1788) and 0.7 µM in experiment [3] (Homo sapiens, PBMC).

For `Nc1nc(N2CCOCC2)c2nc(-c3ccsc3)ccc2n1` [Example 233, 2-amino-4-morpholino-6-(3-thiophene)-pyrido[3,2-d]pyrimidine], the figures for the IC50 in experiment [1] and in experiment [3] were 4.4 µM and 3.7 µM, respectively.

Turning to `COc1ccc(-c2ccc3nc(N)nc(NC4CCCN(C(=O)Nc5cccc(C)c5)C4)c3n2)cc1OC` (stereo not shown) [Example 264, 2-amino-4-[(3-methylphenylcarbamoylpiperidin-3-yl)amino)-6-(3,4-dimethoxyphenyl]-pyrido[3,2-d]pyrimidine], the IC50 in experiment [1] (Homo sapiens, RPMI-1788) was determined as 0.5 µM; in experiment [3] (Homo sapiens, PBMC), 1.8 µM.

As to `Nc1nc(N2CCOCC2)c2nc(-c3ccccc3Br)ccc2n1` [Example 210, 2-amino-4-morpholino-6-(2-bromo-phenyl)-pyrido[3,2-d]pyrimidine], the IC50 in experiment [1] (Homo sapiens, RPMI-1788) came to 1.8 µM; in experiment [3] (Homo sapiens, PBMC), 7.2 µM.

Take `COc1cc(-c2ccc3nc(N)nc(N4CCNCC4)c3n2)ccc1O` [Example 100, 2-amino-4-(N-piperazin-1-yl)-6-(3-methoxy-4-hydroxyphenyl)-pyrido[3,2-d]pyrimidine]: the results for the IC50 in experiment [1] and in experiment [3] were 3.3 µM and 2.4 µM, respectively.

On to `COc1ccc(-c2ccc3nc(N)nc(Nc4cccc(Br)c4)c3n2)cc1OC` [Example 29, 2-amino-4-(3-bromo-anilino)-6-(3,4-dimethoxyphenyl)pyrido[3,2-d]-pyrimidine], for which the IC50 in experiment [1] (Homo sapiens, RPMI-1788) worked out at 0.7 µM; in experiment [3] (Homo sapiens, PBMC) it was 0.8 µM.

Turning to `COc1ccc(-c2ccc3nc(N)nc(NCCN4CCOCC4)c3n2)cc1OC` [Example 33, 2-amino-4-[4-(2-aminoethyl)morpholino]-6-(3,4-dimethoxyphenyl)-pyrido[3,2-d]pyrimidine], the IC50 in experiment [1] turned out to be 1.9 µM; in experiment [3] it was 0.7 µM.

On to `Cc1ccc(-c2ccc3nc(N)nc(N4CCOCC4)c3n2)s1` [Example 235, 2-amino-4-morpholino-6-(5-methyl-2-thienyl)-pyrido[3,2-d]pyrimidine], for which the IC50 in experiment [1] (Homo sapiens, RPMI-1788) is 3.4 µM; in experiment [3] (Homo sapiens, PBMC) it was 1.8 µM.

`COc1ccc(-c2ccc3nc(N)nc(N4CCN(Cc5ccc6c(c5)OCO6)CC4)c3n2)cc1OC` [Example 50, 2-amino-4-(1-piperonyl-piperazin-1-yl)-6-(3,4-dimethoxyphenyl)-pyrido[3,2-d]pyrimidine]: the IC50 in experiment [1] came out at 7.4 µM; in experiment [3], 8.5 µM.

On to `COc1ccc(-c2ccc3nc(N)nc(N4CC[C@H](NC(=O)COc5ccc(Cl)cc5)C4)c3n2)cc1OC` [Example 220], for which the IC50 stood at 4.3 µM in experiment [1] (Homo sapiens, RPMI-1788) and 1.8 µM in experiment [3] (Homo sapiens, PBMC).

Regarding `Cc1csc(-c2ccc3nc(N)nc(N4CCOCC4)c3n2)c1` [Example 239, 2-amino-4-morpholino-6-(4-methyl-2-thienyl)-pyrido[3,2-d]pyrimidine], the IC50 amounted to 4.6 µM in experiment [1] (Homo sapiens, RPMI-1788) and 4.9 µM in experiment [3] (Homo sapiens, PBMC).

With `O=C(Nc1cccc(Cl)c1)N1CCN(c2ncnc3ccc(-c4ccc5c(c4)OCO5)nc23)CC1` [Example 82, 4-[(N-3-chlorophenylcarbamoyl)-piperazin-1-yl]-6-(3,4-methylenedioxy)phenyl-pyrido[3,2-d]pyrimidine], the IC50 in experiment [1] was 0.3 µM. Also, in experiment [2] (@ 10 μM), the “PDE-4 (% inhibition)” value is given as 31% @ 10 μM.

As for `Nc1nc(N2CCOCC2)c2nc(-c3ccc(Cl)s3)ccc2n1` [Example 241, 2-amino-4-morpholino-6-(5-chloro-2-thienyl)-pyrido[3,2-d]pyrimidine], the IC50 in experiment [1] (Homo sapiens, RPMI-1788) came to 2.2 µM; in experiment [3] (Homo sapiens, PBMC), 5.4 µM.

The record behind these values is patent US20090264415A2 (priority 2004, published 2009).
